Residues, ends and D or L forms follow the SMILES beside them.
Tests used:
[1] = rat, in vivo, sc
[2] = tested on: animal models for depression; conditions: in vivo; cited from earlier work

Molecule | levels found in the hippocampus and the amygdala [1] | activity in animal models for depression [2]
4-F-Phe-cis- or trans-4-OH-Pro-Arg-Gly-Trp-NH2 [SEQ ID NO:43] | found at detectable levels and substantially unchaged in the hippocampus and the amygdala | –
CC(C)C[C@H](NC(=O)[C@@H]1CCCN1)C(=O)NCC(N)=O [MIF, prolyl-leucyl-glycinamide] (H-Pro-Leu-Gly-NH2) | – | active in a number of animal models for depression

— patent US6767897B2, “Therapeutic uses of tri-, tetra-, penta-, and polypeptides” (Innapharma, Inc., priority 1994, dated 2004)
